Source: patent publication US8703431B2, “Polypeptides for the in vitro assessment of the sensitising potential of a test compound” (Immunosearch, priority 2009, dated 2014)

Columns and labels:
[1] = test system: polypeptide of sequence SEQ ID NO: 19 (Ac-RFAACAA-NH2); test: HPLC test of % fixing of test compound on polypeptide (positive control peptide); format: binding; details: 5 mM test compound; for % fixing (mean), SEQ ID NO: 19: Example 4; for fixing, SEQ ID NO: 19, pH 8.3 / fixing, SEQ ID NO: 19, pH 8.8 / fixing, SEQ ID NO: 19, pH 9.2: Example 3; for fixing, SEQ ID NO: 19, pH 8.3: twice 0.5 mM polypeptide (SEQ ID NO: 19 and 8), TRIS-HCl pH 8.3; for fixing, SEQ ID NO: 19, pH 8.3 / fixing, SEQ ID NO: 19, pH 8.8: 'Fixing' = fixing exists but not quantifiable; for fixing, SEQ ID NO: 19, pH 8.8: TRIS-HCl pH 8.8; for fixing, SEQ ID NO: 19, pH 9.2: TRIS-HCl pH 9.2
Description: (§1) A test with 0.5 mM of polypeptide and 5 mM of test compound is carried out under the following conditions:
(§2) The reaction mixture containing 40 μl of peptide solution (1.25 mM stock solution in a 100 mM ammonium acetate buffer at pH 10.2 and the polypeptide of sequence SEQ ID NO: 18, SEQ ID NO: 7 in which X1, X2, X3 and X4 each represents a lysine, or SEQ ID NO: 8 in which X1, X2, X3 and X4 each represents a lysine), 35 μl of 100 mM ammonium acetate buffer solution, at pH 10.2, 20 μl of acetonitrile and 5 μl of solution to be tested (100 mM stock solution in acetonitrile or a 50% acetonitrile 50% DMSO mixture) was prepared and then stirred.
(§3) The reaction mixture was then put to incubate at 30° C. for 4 hours and in darkness.
(§4) HPLC analysis was then carried out at a gradient of 10% to 45% of buffer B (acetonitrile+0.08% of trifluoroacetic acid (TFA)) in 20 minutes (buffer A: water+0.1% of TFA), rate 1 ml/minute. Detection was carried out under UV at 230 nm.
(§5) The control without allergen consisted of 40 μl of buffer solution.
A test with 0.5 mM of polypeptide of sequence […] and 5 mM of test compound was carried in accordance with the same protocol as that described for example 1.
The sequence SEQ ID NO: 19, which is not a lipocalin derivative, was used as a positive control. This sequence corresponds to the following sequence:
The buffer used was 100 mM TRIS-HCl at pH 8.3.
(§6) The buffer used was 100 Mm TRIS-HCl at pH 8.3, pH 9.2 and pH 8.8.
(§7) The buffer used was TRIS-HCl at 100 mM.
(§8) A test with twice 0.5 mM of polypeptides of sequences SEQ ID NO: 19 and SEQ ID NO: 1 wherein X1, X2, X3 and X4 each represent a lysine, and having an NH2 group at its C-Terminal end, and SEQ ID NO: 8 wherein X1, X2, X3 and X4 each represent a lysine, and 5 mM of test compound, was carried out in accordance with the same protocol as that described for example 1.

[2] = skin sensitisation, as stated in the description; cited from earlier work
[3] = target: T1, polypeptide SEQ ID NO: 8 in which X1, X2, X3 and X4 each represents a lysine (Mus musculus, UniProt O09114); test: HPLC test of % fixing of test compound on polypeptide; format: binding; details: 5 mM test compound; for % fixing (mean), SEQ ID NO: 8 (X1-X4 lysine): Example 4; for fixing, SEQ ID NO: 8 (X1-X4 lysine), pH 8.3 / fixing, SEQ ID NO: 8 (X1-X4 lysine), pH 8.8 / fixing, SEQ ID NO: 8 (X1-X4 lysine), pH 9.2: Example 3; for fixing, SEQ ID NO: 8 (X1-X4 lysine), pH 8.3: twice 0.5 mM polypeptide (SEQ ID NO: 19 and 8), TRIS-HCl pH 8.3; for fixing, SEQ ID NO: 8 (X1-X4 lysine), pH 8.3 / fixing, SEQ ID NO: 8 (X1-X4 lysine), pH 9.2: 'Fixing' = fixing exists but not quantifiable; for fixing, SEQ ID NO: 8 (X1-X4 lysine), pH 8.8: TRIS-HCl pH 8.8; for fixing, SEQ ID NO: 8 (X1-X4 lysine), pH 9.2: TRIS-HCl pH 9.2
T1 construct: made in house; host or cells: chemical peptide synthesis (Fmoc)
T1 sequence (O09114 148-173 limits assumed): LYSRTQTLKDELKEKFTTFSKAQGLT
Description: as §1, §2, §3, §4, §5, §6, §7, §8

[4] = test system: polypeptide SEQ ID NO: 1 wherein X1, X2, X3 and X4 each represent a lysine, having an NH2 group at its C-Terminal end; test: as above; format: binding; details: for % fixing, SEQ ID NO: 1 (X1-X4 lysine, NH2 group at C-Terminal end): Example 5, 5 mM test compound, TRIS-HCl 100 mM, signal disturbed, preventing measurements greater than 82-83% fixing, these values represent a minimum
Description: as §1, §2, §3, §4, §5, §8, §7
It should be noted, in the case of the tests of SEQ ID NO: 1, the signal was disturbed, preventing measurements greater than 82-83% fixing. These values consequently represent a minimum.
A coelution of the polypeptide with the allergens cinnamic aldehyde and 1,2-Benzisothiazolin-3-one was observed.

[5] = test system: polypeptide of sequence SEQ ID NO: 18 (Ac-RFAAKAA-NH2); test: HPLC test of % fixing of test compound on polypeptide (positive control peptide); format: binding; details: 0.5 mM polypeptide, 5 mM test compound, 100 mM ammonium acetate buffer pH 10.2, 30° C., 4 hours, darkness
Description: as §1, §2
The sequence SEQ ID NO: 18, which is not a lipocalin derivative, was used as a positive control. This sequence corresponds to the following sequence:
as §3, §4, §5

[6] = target: T2, polypeptide SEQ ID NO: 7 in which X1, X2, X3 and X4 each represents a lysine (Mus musculus, UniProt P11672, DEL176-176); test: HPLC test of % fixing of test compound on polypeptide; format: binding; details: 0.5 mM polypeptide, 5 mM test compound, 100 mM ammonium acetate buffer pH 10.2, 30° C., 4 hours, darkness
T2 construct: made in house; host or cells: chemical peptide synthesis (Fmoc)
T2 sequence (P11672 with tags, fused parts or gaps DEL176-176 limits assumed): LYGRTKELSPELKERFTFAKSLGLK
Description: as §1, §2, §3, §4, §5

[7] = Example 2, 0.5 mM polypeptide, 100 mM TRIS-HCl pH 8.3
[8] = twice 0.5 mM polypeptide, TRIS-HCl 100 mM
[9] = Example 5, twice 0.5 mM polypeptide, TRIS-HCl 100 mM
[10] = twice 0.5 mM polypeptide, TRIS-HCl 100 mM, 'Fixing' = not quantifiable
[11] = Example 5, twice 0.5 mM polypeptide, TRIS-HCl 100 mM, 'Fixing' = not quantifiable
[12] = 0.5 mM polypeptide, 100 mM ammonium acetate buffer pH 10.2, 30° C., 4 hours, darkness

Row | SMILES | % fixing, SEQ ID NO: 19 [1, 7] [%] | % fixing (mean), SEQ ID NO: 19 [1, 8] [%] | % fixing, SEQ ID NO: 19 [1, 9] [%] | sensitising capacity (sensitiser class) [2] | % fixing (mean), SEQ ID NO: 8 (X1-X4 lysine) [3, 10] | % fixing, SEQ ID NO: 8 (X1-X4 lysine) [3, 11] | % fixing, SEQ ID NO: 1 (X1-X4 lysine, NH2 group at C-Terminal end) [4] [%] | fixing, SEQ ID NO: 19, pH 8.3 [1] | fixing, SEQ ID NO: 19, pH 8.8 ([1]; twice 0.5 mM polypeptide) | fixing, SEQ ID NO: 8 (X1-X4 lysine), pH 8.3 [3] | fixing, SEQ ID NO: 8 (X1-X4 lysine), pH 8.8 ([3]; twice 0.5 mM polypeptide) [%] | fixing, SEQ ID NO: 8 (X1-X4 lysine), pH 9.2 ([3]; twice 0.5 mM polypeptide) | % fixing, SEQ ID NO: 18 [5] [%] | % fixing, SEQ ID NO: 8 (X1-X4 lysine) [3, 12] [%] | % fixing, SEQ ID NO: 7 (X1-X4 lysine) [6] [%] | fixing, SEQ ID NO: 19, pH 9.2 ([1]; twice 0.5 mM polypeptide) [%] | precipitation of test compound during measurements with SEQ ID NO: 1 ([4]; Example 5 conditions, explains the medium fixing results)
1 | CN(C)CCCN [3-DMAPA, 3-3-dimethylaminopropylamine] | 25 | 15 | 15 | moderate sensitisers | 6% | 6% | 3 | – | – | – | – | – | – | – | – | – | –
2 | O=c1[nH]sc2ccccc12 [Ben, 1,2-benzisothiazolin-3-one] | – | 90 | 90 | moderate sensitisers | – | – | – | Fixing | Fixing | 100% | 100 | 0% | – | – | – | – | –
3 | O=C/C=C/c1ccccc1 [CA, cinnamic aldehyde] | – | – | – | moderate sensitisers | 30% | 30% | – | – | – | – | – | – | 17 | 30 | 100 | – | –
4 | CC(C)=CCCC(C)=CC=O [Cal, citral] | 70 | 46 | 46 | moderate sensitisers | 70% | 70% | 64 | – | – | – | – | – | – | – | – | – | –
5 | Clc1ccccc1 [Cbz, chlorobenzene] | 0 | 0 | 0 | non-sensitising | 0% | 0% | 7.5 | – | – | – | – | – | 0 | 0 | 0 | – | –
6 | O=c1c(-c2ccccc2)c1-c1ccccc1 [DPCP, diphenylcyclopropenone] | 96 | 100 | 100 | extremely strong sensitiser | – | – | 83.5 | – | – | – | – | – | – | – | – | – | –
7 | O=CCCCC=O [GA, glutaraldehyde] | – | 33 | 33 | strong sensitisers | 50% | 50% | 83 | 22% | Fixing | 50% | 100 | 50% | – | – | – | 33 | –
8 | Oc1ccc(O)cc1 [HQ, 1,4-hydroquinone] | – | 90 | 90 | strong sensitisers | 100% | 100% | 82.5 | 100% | – | 100% | 100 | Fixing | – | – | – | – | –
9 | CC(O)C(=O)O (centres unmarked) [LA, lactic acid] | – | 0 | 0 | non-sensitising | 0% | 0% | 1 | 0% | 0% | 0% | 0 | 0% | – | – | – | 0 | –
10 | CC(C=O)Cc1ccc(C(C)(C)C)cc1 (centres unmarked) [Li, lilial] | – | 18 | 18 | weak sensitiser | 0% | 0% | 12 | 36% | – | 0% | – | – | – | – | – | 0 | –
11 | O=CCc1ccccc1 [PA, phenylacetaldehyde] | – | 81 | 81 | moderate sensitisers | Fixing | Fixing | 54 | 100% | – | Fixing | 0 | 21% | – | – | – | 86 | very greatly precipitated
